# Experimental data published in patent publication US12202805B2, “Process for preparing (5S)-{[2-(4-carboxyphenyl)ethyl] |2-(2-{|3-chloro-4'-(trifluoromethyl)biphenyl-4-yl]methoxy}phenyl)ethyl]aminol-5,6,7,8-tetrahydroquinoline-2-carboxylic acid and its crystalline forms for use as pharmaceutically active compound” (Bayer Aktiengesellschaft, priority 2021, dated 2025).
# What was measured:
# [1] = test system: thromboxane A2 challenged PAH-minipig; assay: Haemodynamics in the anesthetized thromboxane challenged minipig, inhaled nebulized solution (PAP, BP); type: in vivo, Göttingen Minipigs
# Experimental: E-1 Haemodynamics in the Anesthetized Thromboxane Challenged Minipig
# Lung Selectivity and Duration of Action
# (§1) Healthy Göttingen Minipigs® Ellegaard (Ellegaard, Denmark) of both sexes and having a weight of 2-6 kg were used. The animals were sedated by i.m. administration of about 25 mg/kg ketamine and about 10 mg/kg azaperone. Anaesthesia was initiated by i.v. administration of about 2 mg/kg ketamine and about 0.3 mg/kg midazolam. Maintenance of anaesthesia was by i.v. administration of about 7.5-30 mg/kg/h ketamine and about 1-4 mg/kg/h midazolam (rate of infusion 1-4 ml/kg/h) and about 150 μg/kg/h pancuronium bromide (for example Pancuronium-Actavis). After intubation, the animals were ventilated by the ventilator at a constant respiratory volume (10-12 ml/kg, 35 breaths/min; Avea®, Viasys Healthcare, USA, or Engström Carestation, GE Healthcare, Freiburg, Germany) such that an end-tidal CO2 concentration of about 5% was achieved. Ventilation was performed with room air, enriched with about 40% oxygen (normoxia). For the measurement of the haemodynamic parameters such as pulmonary arterial pressure (PAP), blood pressure (BP) and heart rate (HR), catheters were inserted into the carotid artery to measure the blood pressure, and a Swan-Ganz® catheter was introduced in a flow-directed manner via the jugular vein into the pulmonary artery. The haemodynamic signals were recorded and evaluated by means of pressure transducers (Combitransducer, B. Braun, Melsungen, Germany)/amplifiers and Ponemah® as data acquisition software.
# After the instruments have been placed into the animals, continuous infusion of a thromboxane A2 analog was initiated to increase the pulmonary arterial pressure. About 0.3-0.75 μg/kg/min of 9,11-didesoxy-9α,11α-epoxymethanoprostaglandine F2α (U-44069; Sigma, cat. no. D0400, or Cayman Chemical Company, cat. no. 16440), dissolved in physiological saline, were infused to achieve an increase of the mean pulmonary arterial pressure to values of over 25 mmHg. 30 minutes after the start of the infusion, a plateau was reached, and the experiment was started.
# The test substances were administered as i.v. infusion or by inhalation. For the preparation of the solution for inhalation, the following procedure was adopted: For an animal having a weight of 4 kg, to prepare the stock solution (300 μg/kg), 1.2 mg of the test compound were weighed out and dissolved in a total volume of 3 ml (1% DMSO, 99% 0.2% strength citric acid solution, 1 n aqueous sodium hydroxide solution to adjust the pH to 8). The solution was then diluted to the concentration employed using 0.2% strength citric acid which had been adjusted to pH 8 beforehand with aqueous sodium hydroxide solution. In each test, 3 ml of the solution of test compound per 4 kg animal were nebulized in the inhalation arm of the respiratory circuit using the Aeroneb® Pro nebulizer system. The mean nebulization time was about 7 min from the start of the nebulization.
# With respect to a prediction of the duration of action for human studies comparative example 11 was compared in the PAH minipig model after inhaled application to Ventavis® (=Iloprost, 10 μg/kg nominal dose), which we used as a clinical reference. […] Therefore, the duration of action is more than 6 times longer compared to Ventavis in this preclinical animal model.
# [2] = test system: thromboxane A2 challenged PAH-minipig; assay: Haemodynamics in the anesthetized thromboxane challenged minipig, intratracheal dry powder (PAP, BP); type: in vivo, Göttingen Minipigs
# Experimental: as §1
# As reference pure Lactose vehicle was applied in the beginning of each experiment.
# [3] = Micronization in spiral jet mill: solid form (XRPD) and particle size distribution; type: physicochemical; details: for PSD X10 / PSD X50 / PSD X90: dry measurement 4 bar
# Excerpt: For inhalative drug products it is important to guarantee a homogeneous drug substance with defined particle size <5 μm to secure delivery to the deep lung compartments. This technical requirement can be afforded by micronization of the drug substance particles.
# Generally no amorphization even partial nor form conversion should happen during the necessary micronization step.
# The corresponding batches (examples 8a-8 d) were micronized using a 50 mm spiral jet mill and pressurized nitrogen with the following parameters (see table 16b).
# The corresponding batches were micronized using a 100 mm spiral jet mill and pressurized nitrogen with the following parameters (see table 16c).
# All measurements cited in the above tables were obtained by laser diffraction with dry dispersion using compressed air. Measuring in aqueous suspension with surfactants may lead to smaller particle sizes (×90 up to 1 μm smaller).
# [4] = Storage stability of pseudopolymorphic forms (XRPD); type: physicochemical; details: for Result (form after storage): monohydrate II
# [5] = PTFE coated jet mill, 25° C., 4.5/4.0 bar, 4.5 g/min
# [6] = VA jet mill 50 mm, 25° C., 4.5/4.0 bar, 4.5 g/min
# [7] = VA jet mill (low stress conditions), −65° C., 4.5/3.0 bar, 10.6 g/min
# [8] = VA jet mill, −65° C., 4.5/4.0 bar, 5.5 g/min
# [9] = after micronization, 100 mm spiral jet mill, monohydrate I as starting material
smiles,measurement,setting,value
"O=C(O)c1ccc(CCN(CCc2ccccc2OCc2ccc(-c3ccc(C(F)(F)F)cc3)cc2Cl)[C@H]2CCCc3nc(C(=O)O)ccc32)cc1 [comparative example 11, (5S)-5-{[2-(4-carboxyphenyl)ethyl][2-(2-{[3-chloro-4′-(trifluoromethyl)[biphenyl]-4-yl]methoxy}phenyl)ethyl]amino}-5,6,7,8-tetrahydroquinoline-2-carboxylic acid]",duration of dose dependent efficacy (PAP),"[1]; inhaled, all doses (10, 30, 100 μg/kg nominal dose), 240 min observation interval",≥ 240 min
same,time of maximum effect after start inhalation,[1]; nebulized liquid formulations,about 90 min
same,"duration of action, times longer compared to Ventavis",[1]; preclinical animal model,more than 6 times
same,MED,"[2]; dry powder i.t., lower doses not applicable",≤ 7.5 µg/kg
"O=C(O)c1ccc(CCN(CCc2ccccc2OCc2ccc(-c3ccc(C(F)(F)F)cc3)cc2Cl)[C@H]2CCCc3nc(C(=O)O)ccc32)cc1 [example 2, (5S)—{[2-(4-Carboxyphenyl)ethyl][2-(2-{[3-chloro-4′-(trifluoromethyl)biphenyl-4-yl]methoxy}phenyl)-ethyl]amino}-5,6,7,8-tetrahydroquinoline-2-carboxylic acid as Monohydrate II]",minimal effective nominal dose (5% reduction in PAP),"[1]; nebulized solution, inhaled",3 µg/kg
same,PSD X10,[3]; [5],"X10: 0.7 μm,"
same,PSD X50,[3]; [5],"X50: 1.9 μm,"
same,PSD X90,[3]; [5],X90: 5.0 μm
same,PSD X10,[3]; [6],"X10: 0.4 μm,"
same,PSD X50,[3]; [6],"X50: 1.7 μm,"
same,PSD X90,[3]; [6],X90: 4.2 μm
same,PSD X10,[3]; [7],"X10: 0.5 μm,"
same,PSD X50,[3]; [7],"X50: 2.3 μm,"
same,PSD X90,[3]; [7],X90: 9.6 μm
same,PSD X10,[3]; [8],"X10: 0.4 μm,"
same,PSD X50,[3]; [8],"X50: 1.8 μm,"
same,PSD X90,[3]; [8],X90: 4.8 μm
same,XRPD form after micronization,[3]; batch of example 2,monohydrate II with partial amorphization
same,Result (form after storage),"[4]; brown glass closed with paper filter disc, 40° C., 75% relative humidity",monohydrate I
same,Result (form after storage),"[4]; brown glass snap on closure, 25° C., 60% relative humidity, one, three and six months",monohydrate II
same,Result (form after storage),"[4]; polyethylene, 25° C., 60% relative humidity",monohydrate I
same,Result (form after storage),"[4]; polyethylene, 40° C., 75% relative humidity",monohydrate I
same,systemic blood pressure,"[2]; 375 μg/kg i.t., within the last hour of the observation interval",slightly affected
same,efficacy with regard to PAP reduction as well as systemic BP reduction,"[2]; micronized hydrates, 1.5 mg/4 kg (=375 μg/kg) i.t.",comparable efficacy
same,"BP, % changes vs. prevalues","[2]; time 80 min, 375 μg/kg i.t.",100.0%
same,"BP, % changes vs. prevalues","[2]; time 130 min, 375 μg/kg i.t.",97.0%
same,"BP, % changes vs. prevalues","[2]; time 140 min, 375 μg/kg i.t.",97.0%
same,"BP, % changes vs. prevalues","[2]; time 200 min, 375 μg/kg i.t.",97.0%
"O=C(O)c1ccc(CCN(CCc2ccccc2OCc2ccc(-c3ccc(C(F)(F)F)cc3)cc2Cl)[C@H]2CCCc3nc(C(=O)O)ccc32)cc1 [example 4, (5S)—{[2-(4-Carboxyphenyl)ethyl][2-(2-{[3-chloro-4′-(trifluoromethyl)biphenyl-4-yl]methoxy}phenyl)-ethyl]amino}-5,6,7,8-tetrahydroquinoline-2-carboxylic acid as Monohydrate I]",stability under micronization conditions,"[3]; 100 mm spiral jet mill, pressurized nitrogen",stable
same,PSD X10,[3]; [9],"X10: 0.7 μm,"
same,PSD X50,[3]; [9],"X50: 2.1 μm,"
same,PSD X90,[3]; [9],X90: 6.1 μm
same,storage stability,[4]; under the storage conditions of Table 15,stable
